A short description of series [1]: Stability. Type of series: physicochemical.
Series [2] is described as follows: Solubility. It is filed as physicochemical.
Series [3] has as its system gram-positive and gram-negative microorganisms. The experiment in a line: Antibacterial activity (general statement). Type of series: cell-based.
The subject of series [4] is Staphylococcus aureus A.T.C.C. 6538P. The experiment in a line: standard disc plate microbiological assay.
For series [5], the system named is Streptococcus pyogenes C. The experiment in a line: Minimum Inhibitory Concentration. The conditions noted are these: Tryptose phosphate broth at pH 7.2. It is filed as cell-based. From the text:
(§1) Test Medium: Tryptose phosphate broth at pH 7.2.

Series [6] concerns Salmonella paratyphi 13311. The experiment in a line: Minimum Inhibitory Concentration. Type of series: cell-based. The note with it: Salmonella enterica, pH 7.2.
Source text: as §1

For series [7], the system named is Klebsiella pneumoniae Ad 17 - kR. The series is described as follows: Minimum Inhibitory Concentration. The note with it: AD17KR, pH 7.2. Type of series: cell-based.
Source text: as §1

Series [8] deals with Pseudomonas aeruginosa 130 - GR. The series is described as follows: Minimum Inhibitory Concentration. Type of series: cell-based. The note with it: Tryptose phosphate broth at pH 7.2.
Source text: as §1

Series [9] concerns Pseudomonas aeruginosa 236 - GR. The series is described as follows: Minimum Inhibitory Concentration. It is filed as cell-based. The conditions noted are these: Tryptose phosphate broth at pH 7.2.
Source text: as §1

The test system of series [10] is Staphylococcus aureus 45. The experiment in a line: Minimum Inhibitory Concentration. It is filed as cell-based. The note with it: Tryptose phosphate broth at pH 7.2.
Source text: as §1

The test system of series [11] is Escherichia coli 578. The experiment in a line: Minimum Inhibitory Concentration. It is filed as cell-based. The conditions noted are these: Tryptose phosphate broth at pH 7.2.
Source text: as §1

Series [12] concerns Staphylococcus aureus 209P. The series is described as follows: Minimum Inhibitory Concentration. It is filed as cell-based. The note with it: Tryptose phosphate broth at pH 7.2.
Source text: as §1

The subject of series [13] is Escherichia coli 11775. The series is described as follows: Minimum Inhibitory Concentration. Type of series: cell-based. The conditions noted are these: Tryptose phosphate broth at pH 7.2.
Source text: as §1

Series [14] concerns Proteus mirabilis 8019. The series is described as follows: Minimum Inhibitory Concentration. It is filed as cell-based. The conditions noted are these: Tryptose phosphate broth at pH 7.2.
Source text: as §1

Series [15] is described as follows: Acute Toxicity. The note with it: mouse, in vivo, sc. As to the method: b. The acute toxicity of Antibiotic G-52 in the form of the sulfate salt is determined in the standard manner by administration of the antibiotic to mice (CF-1) intravenously, subcutaneously and intraperitoneally. The results are analyzed by standard probit procedures to determine the LD50 values with 95% confidence limits.

Series [16] deals with Staphylococcus aureus Gray. The series is described as follows: Protective Activity in mice. Type of series: in vivo, Mice (Carworth Farms CF-1). The note with it: sc, S.C., single dose of antibiotic (sulfate) 1 hour after intraperitoneal infection (10^7 organisms), survivors at 48 hours, read-out: PD50. As to the method:
(§2) a. Mice (Carworth Farms CF-1 weighing about 18 - 20 grams) are treated with a single dose of antibiotic (sulfate) one (1) hour after an intraperitoneal infection with a lethal (10^7 organisms) quantity of the infectious organism. The number of survivors are determined 48 hours after infection and the data analyzed by standard probit procedures to determine the PD50 values with 95% confidence limits.

In series [17] the test system is Escherichia coli. The series is described as follows: Protective Activity in mice. Type of series: in vivo, Mice (Carworth Farms CF-1). The note with it: sc, S.C., single dose of antibiotic (sulfate) 1 hour after intraperitoneal infection (10^7 organisms), survivors at 48 hours, read-out: PD50. As to the method: as §2
Series [18] has as its system Pseudomonas aeruginosa. The experiment in a line: Protective Activity in mice. Type of series: in vivo, Mice (Carworth Farms CF-1). The conditions noted are these: sc, S.C., single dose of antibiotic (sulfate) 1 hour after intraperitoneal infection (10^7 organisms), survivors at 48 hours, read-out: PD50. As to the method: as §2

Values after ≈ are worked out from the molar mass of the structure shown. Some results are limits rather than exact numbers.

By zone of inhibition is commonly meant the extent of the growth-free halo in a diffusion test. Read a high zone of inhibition as a stronger effect on the plate. The term MIC denotes the smallest concentration in the dilution series that meets the test's criterion for growth inhibition. The LD50 is the dose expected to kill half of the subjects tested. A low value points to a more toxic substance.

With `CNCC1=CC[C@@H](N)[C@@H](O[C@H]2[C@H](O)[C@@H](O[C@H]3OC[C@](C)(O)[C@H](NC)[C@H]3O)[C@H](N)C[C@@H]2N)O1` [Antibiotic G-52], the stable to boiling in series [1] (MacIlvaines buffer from pH 2-8) and in series [1] (sodium hydroxide-boric acid buffer from pH 8-10) was at least 30 min each time. Besides, the “solubility in organic solvents” value in series [2] (most polar organic solvents such as lower alcohols, dimethylformamide, dimethylsulfoxide, pyridine) is on record as “some degree of solubility”. In addition, the solubility in water entry in [2] (water) is “very soluble”. The “effect on growth of gram-positive and gram-negative microorganisms” value in [3] is “adversely affect the growth”. Moreover, in [4] (Staphylococcus aureus), the zone of inhibition at 1 µg/disc came out at 17.7 ± 1 mm. Besides, in series [4] (against standard antibiotic base (defined potency 1000 mcg/mg)), the “potency (assay)” value is listed as “about 1000 mcg/mg”. Besides, the MIC in series [5] turned out to be 25 µg/mL (≈ 54.2 µM); in series [6], 17.5 µg/mL (≈ 37.9 µM); in [7], 0.8 µg/mL (≈ 1.73 µM); in series [8] it was 25 µg/mL (≈ 54.2 µM); in [9], 25 µg/mL (≈ 54.2 µM); in series [10], 0.8 µg/mL (≈ 1.73 µM). Further, the MIC was 7.5 µg/mL (≈ 16.2 µM) in series [11], 0.3 µg/mL (≈ 0.65 µM) in series [12], 3 µg/mL (≈ 6.5 µM) in series [13] and 7.5 µg/mL (≈ 16.2 µM) in [14]. In addition, in series [15], the LD50 turned out to be 400 mg/kg. Besides, the ED50 in series [16] came to 2.5 mg/kg; in series [17], 2.5 mg/kg; in [18], 1.5 mg/kg.

Source of the values: patent US4001209A, “Antibiotic G-52 and method for the production thereof” (Schering Corporation, priority 1975, dated 1977).
